Literature values in patent US4579840A, “Method of blocking immune complex binding to immunoglobulin Fc receptors” (Immunetech Pharmaceuticals, priority 1983, dated 1986).
Ends that are not written are not given here.

What was measured:
[1] = system: systemic allergic disease; settings: after injection by the subcutaneous route; cited from earlier work
[2] = target: T1, IgE Fc receptor of human basophils (Homo sapiens, UniProt P12319); settings: Plummer et al. 1983; cited from earlier work
T1 construct: host or cells: human basophils
T1 sequence (P12319 26-257): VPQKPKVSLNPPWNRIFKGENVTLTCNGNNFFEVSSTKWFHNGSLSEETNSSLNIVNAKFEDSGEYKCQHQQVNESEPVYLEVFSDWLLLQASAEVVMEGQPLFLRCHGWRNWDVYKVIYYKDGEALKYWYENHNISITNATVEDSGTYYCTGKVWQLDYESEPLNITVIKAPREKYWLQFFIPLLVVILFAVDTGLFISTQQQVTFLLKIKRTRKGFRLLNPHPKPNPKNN
T1 sequence (Q01362 1-244 partner): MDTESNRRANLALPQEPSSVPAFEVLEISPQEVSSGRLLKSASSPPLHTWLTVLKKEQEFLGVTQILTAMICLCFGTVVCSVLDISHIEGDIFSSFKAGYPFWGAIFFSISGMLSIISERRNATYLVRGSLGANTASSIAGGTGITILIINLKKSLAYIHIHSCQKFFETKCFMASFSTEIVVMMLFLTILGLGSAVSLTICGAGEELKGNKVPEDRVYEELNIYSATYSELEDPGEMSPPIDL
T1 sequence (P30273 19-86 partner): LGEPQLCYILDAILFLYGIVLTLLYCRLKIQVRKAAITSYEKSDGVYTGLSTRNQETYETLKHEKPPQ

[3] = system: local cutaneous allergic reaction (Prausnitz-Kustner); settings: Hamburger 1975; cited from earlier work
[4] = system: granulocytes, monocytes and macrophages; settings: in vitro; literature; cited from earlier work
[5] = system: human and rodent mast cells; settings: Stanworth et al. 1979; cited from earlier work
[6] = system: human monocyte IgG Fc receptors; settings: literature (Ciccimarra 1975; Stanworth 1982; Ratcliffe and Stanworth 1982); Tuftsin also 'ourselves'; cited from earlier work
lymphocytes = settings: Morgan, Huguli and Weigle 1982; cited from earlier work
C1 = C1 (Homo sapiens, UniProt P02745+P02746+P02747); settings: Prystowsky et al. 1981, Lukas et al. 1981; cited from earlier work
[7] = system: macrophage IgG Fc receptors of mice; settings: Stanworth 1982; cited from earlier work

Chain of C1 (P02745 23-245): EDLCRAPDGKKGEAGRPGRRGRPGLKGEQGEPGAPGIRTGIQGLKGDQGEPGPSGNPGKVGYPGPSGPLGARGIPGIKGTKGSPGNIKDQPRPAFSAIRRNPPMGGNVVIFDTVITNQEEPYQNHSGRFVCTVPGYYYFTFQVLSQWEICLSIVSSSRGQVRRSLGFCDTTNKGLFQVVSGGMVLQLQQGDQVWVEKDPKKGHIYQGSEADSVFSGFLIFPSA
Chain of C1 (P02746 28-253): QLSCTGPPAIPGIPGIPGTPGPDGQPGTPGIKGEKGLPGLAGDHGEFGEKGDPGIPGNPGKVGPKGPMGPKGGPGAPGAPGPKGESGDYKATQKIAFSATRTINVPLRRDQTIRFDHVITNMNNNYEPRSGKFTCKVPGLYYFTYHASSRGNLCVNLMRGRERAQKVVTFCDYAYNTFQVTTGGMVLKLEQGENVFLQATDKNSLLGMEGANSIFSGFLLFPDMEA
Chain of C1 (P02747 29-245): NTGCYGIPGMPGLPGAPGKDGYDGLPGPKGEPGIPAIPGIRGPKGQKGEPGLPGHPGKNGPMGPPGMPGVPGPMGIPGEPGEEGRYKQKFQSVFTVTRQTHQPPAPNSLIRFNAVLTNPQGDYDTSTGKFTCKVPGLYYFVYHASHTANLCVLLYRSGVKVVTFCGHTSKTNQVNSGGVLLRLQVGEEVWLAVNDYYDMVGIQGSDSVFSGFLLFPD
Chain of C1 (P00736 18-705 partner): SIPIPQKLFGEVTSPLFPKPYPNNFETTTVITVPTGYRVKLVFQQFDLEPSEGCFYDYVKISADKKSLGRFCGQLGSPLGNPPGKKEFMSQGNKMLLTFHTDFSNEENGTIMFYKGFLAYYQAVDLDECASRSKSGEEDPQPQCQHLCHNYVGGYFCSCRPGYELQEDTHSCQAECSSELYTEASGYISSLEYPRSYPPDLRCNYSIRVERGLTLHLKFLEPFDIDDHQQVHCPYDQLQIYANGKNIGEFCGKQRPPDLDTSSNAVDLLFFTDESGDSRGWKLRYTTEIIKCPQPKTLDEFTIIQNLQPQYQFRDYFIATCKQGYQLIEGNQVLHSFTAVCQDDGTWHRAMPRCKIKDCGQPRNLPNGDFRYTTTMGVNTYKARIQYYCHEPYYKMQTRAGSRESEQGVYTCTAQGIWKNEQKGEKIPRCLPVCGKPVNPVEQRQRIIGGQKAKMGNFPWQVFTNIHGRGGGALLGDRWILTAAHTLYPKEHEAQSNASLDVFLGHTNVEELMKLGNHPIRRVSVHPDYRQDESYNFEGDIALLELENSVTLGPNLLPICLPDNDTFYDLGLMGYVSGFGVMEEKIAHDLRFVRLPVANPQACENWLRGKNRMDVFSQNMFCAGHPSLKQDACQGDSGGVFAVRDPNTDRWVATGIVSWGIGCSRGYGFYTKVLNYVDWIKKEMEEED
Chain of C1 (P09871 16-688 partner): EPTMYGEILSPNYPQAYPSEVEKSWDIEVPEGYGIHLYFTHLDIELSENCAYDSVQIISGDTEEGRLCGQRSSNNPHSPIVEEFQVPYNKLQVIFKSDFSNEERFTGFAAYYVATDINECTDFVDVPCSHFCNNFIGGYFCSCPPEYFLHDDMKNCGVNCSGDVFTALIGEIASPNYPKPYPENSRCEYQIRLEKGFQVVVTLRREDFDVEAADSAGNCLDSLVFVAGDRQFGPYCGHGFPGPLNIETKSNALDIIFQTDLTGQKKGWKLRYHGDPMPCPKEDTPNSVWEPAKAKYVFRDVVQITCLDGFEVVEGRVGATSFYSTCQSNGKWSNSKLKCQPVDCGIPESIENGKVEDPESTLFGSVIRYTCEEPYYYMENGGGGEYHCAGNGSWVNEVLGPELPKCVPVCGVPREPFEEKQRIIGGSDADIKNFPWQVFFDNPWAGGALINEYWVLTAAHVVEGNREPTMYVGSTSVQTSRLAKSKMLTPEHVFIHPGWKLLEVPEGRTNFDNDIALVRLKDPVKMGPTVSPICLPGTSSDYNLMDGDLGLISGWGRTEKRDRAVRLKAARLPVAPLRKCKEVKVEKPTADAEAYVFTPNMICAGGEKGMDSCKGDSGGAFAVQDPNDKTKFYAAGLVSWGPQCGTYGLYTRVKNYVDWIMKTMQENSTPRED

Asp-Ser-Asp-Pro-Arg (DSDPR; printed: Asp-Ser-Asp-Pro-Arg)
effect on systemic allergic disease in humans [1]: inhibit systemic allergic disease
block of human IgE binding to basophil IgE Fc receptors [2]: up to 70%
inhibition of local cutaneous allergic reaction (Prausnitz-Kustner) [3]: approximately 90%

Gly-Gln-Pro-Arg (GQPR; printed: Gly-Gln-Pro-Arg) [Rigin]
stimulation of phagocytosis [4]: phagocytosis-stimulating abilities similar to those of Tuftsin

PRKTKGSGFFVF
degranulation of mast cells [5]: able to cause degranulation

QYDSTYR
blocking of human IgG binding to human monocyte IgG Fc receptors [6]: could slightly block

TISKAKGQPREPQVYTLPSREEM
nonspecific activation of lymphocytes (lymphocytes): induce polyclonal B cell proliferation, antigen-specific antibody responses and Natural Killer (NK) cell-mediated lysis

Thr-Lys-Pro-Arg (TKPR; printed: Thr-Lys-Pro-Arg) [Tuftsin]
stimulation of phagocytosis [4]: active at nanomolar concentrations
inhibition of C1-mediated hemolysis (C1): less active
blocking of human IgG binding to human monocyte IgG Fc receptors [6]: competitively inhibits

VFSRLEVTRAE
binding of 125I-human IgG to mouse macrophages [7]: marked enhancement

Val-Gln-Val-His-Asn-Ala-Lys-Thr-Lys-Pro-Arg-OH (VQVHNAKTKPR-OH)
inhibition of C1-mediated hemolysis (C1): approximately as active as inhibitors as intact monomeric IgG
